# Test results reported in ChEMBL document CHEMBL1154793, “The lecanindoles, nonsteroidal progestins from the terrestrial fungus Verticillium lecanii 6144” (J Nat Prod, 2009).
# Tests used:
# [1] = biological target: T1, Androgen receptor (Homo sapiens, UniProt P10275); assay: Agonist activity at androgen receptor ligand binding domain expressed in african green monkey COS7 cells co-transfected with Gal4-DBD up to 10 uM by luciferase reporter gene assay; assay type: cell-based; conditions: cos-7
# T1 sequence (P10275 whole entry): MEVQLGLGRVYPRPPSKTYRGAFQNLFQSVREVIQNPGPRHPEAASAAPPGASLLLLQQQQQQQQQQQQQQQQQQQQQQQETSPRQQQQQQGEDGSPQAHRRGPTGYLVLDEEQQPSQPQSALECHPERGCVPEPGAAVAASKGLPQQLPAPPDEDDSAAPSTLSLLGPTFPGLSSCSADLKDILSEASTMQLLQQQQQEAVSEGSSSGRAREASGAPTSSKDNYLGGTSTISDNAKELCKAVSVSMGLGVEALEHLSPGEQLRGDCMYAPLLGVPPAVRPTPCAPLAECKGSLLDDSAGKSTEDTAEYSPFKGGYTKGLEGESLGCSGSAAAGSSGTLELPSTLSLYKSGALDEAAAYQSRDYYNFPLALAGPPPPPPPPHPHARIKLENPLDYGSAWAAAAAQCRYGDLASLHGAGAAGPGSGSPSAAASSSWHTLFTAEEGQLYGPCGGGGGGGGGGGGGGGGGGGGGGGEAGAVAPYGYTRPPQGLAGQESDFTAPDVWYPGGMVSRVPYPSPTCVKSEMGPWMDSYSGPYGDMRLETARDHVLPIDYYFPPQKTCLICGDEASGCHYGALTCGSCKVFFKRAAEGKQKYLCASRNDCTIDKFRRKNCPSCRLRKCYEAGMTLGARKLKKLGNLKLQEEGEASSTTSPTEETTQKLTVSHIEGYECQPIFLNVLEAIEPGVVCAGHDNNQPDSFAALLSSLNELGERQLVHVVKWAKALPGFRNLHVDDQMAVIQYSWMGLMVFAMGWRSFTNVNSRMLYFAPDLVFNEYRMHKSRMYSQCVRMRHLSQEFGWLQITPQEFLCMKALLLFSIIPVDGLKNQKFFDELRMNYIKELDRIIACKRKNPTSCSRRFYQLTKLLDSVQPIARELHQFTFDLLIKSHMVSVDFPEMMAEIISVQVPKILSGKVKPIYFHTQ
# [2] = biological target: T2, Mineralocorticoid receptor (Homo sapiens, UniProt P08235)
# T2 sequence (P08235 whole entry): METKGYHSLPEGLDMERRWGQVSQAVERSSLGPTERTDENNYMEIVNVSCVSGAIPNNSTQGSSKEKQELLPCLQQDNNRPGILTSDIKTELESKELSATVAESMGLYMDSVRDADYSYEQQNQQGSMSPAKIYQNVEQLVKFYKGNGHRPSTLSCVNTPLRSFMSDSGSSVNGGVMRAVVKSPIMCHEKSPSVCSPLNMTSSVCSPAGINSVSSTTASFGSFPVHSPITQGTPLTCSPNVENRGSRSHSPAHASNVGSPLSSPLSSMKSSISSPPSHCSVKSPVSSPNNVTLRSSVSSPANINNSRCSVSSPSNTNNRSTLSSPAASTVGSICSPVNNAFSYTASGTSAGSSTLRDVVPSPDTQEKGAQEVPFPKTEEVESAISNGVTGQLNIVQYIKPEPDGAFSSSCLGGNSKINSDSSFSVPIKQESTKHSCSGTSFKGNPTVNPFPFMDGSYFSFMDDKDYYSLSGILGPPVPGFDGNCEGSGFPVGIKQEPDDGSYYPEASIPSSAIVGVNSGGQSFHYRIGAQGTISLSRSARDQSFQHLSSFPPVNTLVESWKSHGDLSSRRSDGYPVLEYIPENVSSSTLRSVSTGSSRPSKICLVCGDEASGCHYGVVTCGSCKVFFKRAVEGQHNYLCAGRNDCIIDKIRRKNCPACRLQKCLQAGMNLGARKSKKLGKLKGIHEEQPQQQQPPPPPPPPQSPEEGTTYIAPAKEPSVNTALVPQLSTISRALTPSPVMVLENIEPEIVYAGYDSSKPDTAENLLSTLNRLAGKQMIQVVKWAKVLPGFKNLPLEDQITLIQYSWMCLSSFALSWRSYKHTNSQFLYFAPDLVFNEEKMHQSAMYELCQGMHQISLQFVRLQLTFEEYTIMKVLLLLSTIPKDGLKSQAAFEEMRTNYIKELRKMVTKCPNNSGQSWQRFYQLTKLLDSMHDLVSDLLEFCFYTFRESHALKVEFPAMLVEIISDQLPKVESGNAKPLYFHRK
# [3] = biological target: T3, Mineralocorticoid receptor (Homo sapiens) (UniProt P08235); assay: Antagonist activity at mineralocorticoid receptor ligand binding domain expressed in african green monkey COS7 cells co-transfected with Gal4-LBD by luciferase reporter gene assay relative to control; assay type: cell-based; set-up: scale not given: the % may be the effect or the level left; conditions: COS-7
# T3 sequence (whole entry): T2 sequence (P08235 whole entry)
# [4] = biological target: T4, Estrogen receptor (Homo sapiens) (UniProt P03372); assay: Agonist activity at estrogen receptor alpha ligand binding domain expressed in african green monkey COS7 cells co-transfected with Gal4-LBD by luciferase reporter gene assay relative to control; assay type: cell-based; conditions: COS-7
# T4 sequence (whole entry): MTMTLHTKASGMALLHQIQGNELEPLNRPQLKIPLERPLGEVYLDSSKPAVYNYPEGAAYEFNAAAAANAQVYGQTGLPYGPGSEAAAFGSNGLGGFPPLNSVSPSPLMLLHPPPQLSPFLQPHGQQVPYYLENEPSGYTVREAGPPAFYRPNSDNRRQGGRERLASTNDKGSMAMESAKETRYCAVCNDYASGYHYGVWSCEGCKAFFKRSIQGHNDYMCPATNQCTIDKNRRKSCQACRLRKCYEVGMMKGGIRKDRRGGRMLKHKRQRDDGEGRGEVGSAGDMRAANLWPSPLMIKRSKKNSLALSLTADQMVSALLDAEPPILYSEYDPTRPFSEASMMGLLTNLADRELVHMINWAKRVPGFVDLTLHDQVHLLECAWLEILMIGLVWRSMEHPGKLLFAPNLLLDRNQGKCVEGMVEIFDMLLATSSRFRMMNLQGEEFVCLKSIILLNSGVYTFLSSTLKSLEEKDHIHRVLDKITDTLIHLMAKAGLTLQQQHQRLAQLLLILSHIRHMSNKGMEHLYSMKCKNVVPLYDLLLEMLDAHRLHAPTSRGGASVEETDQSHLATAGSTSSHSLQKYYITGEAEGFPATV
# [5] = biological target: T1, Androgen receptor
# [6] = biological target: T5, Estrogen receptor (Homo sapiens, UniProt P03372); assay: Agonist activity at estrogen receptor alpha ligand binding domain expressed in african green monkey COS7 cells co-transfected with Gal4-LBD by luciferase reporter gene assay; assay type: cell-based, COS-7
# T5 sequence (P03372 whole entry): T4 sequence (whole entry)
# [7] = biological target: T6, Androgen receptor (Homo sapiens) (UniProt P10275); assay: Antagonist activity at androgen receptor ligand binding domain expressed in african green monkey COS7 cells co-transfected with Gal4-LBD by luciferase reporter gene assay relative to control; assay type: cell-based; set-up: scale not given: the % may be the effect or the level left; conditions: COS-7
# T6 sequence (whole entry): T1 sequence (P10275 whole entry)
# [8] = biological target: Estrogen receptor beta (Homo sapiens, UniProt Q92731); assay: Antagonist activity at estrogen receptor beta ligand binding domain expressed in african green monkey COS7 cells co-transfected with Gal4-LBD by luciferase reporter gene assay relative to control; assay type: cell-based; set-up: scale not given: the % may be the effect or the level left; conditions: COS-7
# Chain of Estrogen receptor beta (Q92731 whole entry, the tested form may be a part): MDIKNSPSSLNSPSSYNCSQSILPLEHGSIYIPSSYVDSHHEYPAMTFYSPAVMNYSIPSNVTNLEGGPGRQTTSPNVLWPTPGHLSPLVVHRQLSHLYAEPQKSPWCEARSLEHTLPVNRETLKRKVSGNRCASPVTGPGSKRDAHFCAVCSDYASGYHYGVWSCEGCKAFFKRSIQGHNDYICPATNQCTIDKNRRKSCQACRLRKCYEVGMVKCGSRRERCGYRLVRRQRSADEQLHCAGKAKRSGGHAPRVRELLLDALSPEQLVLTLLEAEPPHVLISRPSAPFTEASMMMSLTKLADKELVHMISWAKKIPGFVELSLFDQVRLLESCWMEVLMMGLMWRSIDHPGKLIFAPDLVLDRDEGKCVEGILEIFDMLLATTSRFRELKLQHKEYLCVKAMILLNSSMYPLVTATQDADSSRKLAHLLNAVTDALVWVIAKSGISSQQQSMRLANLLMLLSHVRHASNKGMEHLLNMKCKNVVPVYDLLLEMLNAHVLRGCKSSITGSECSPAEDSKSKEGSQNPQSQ
SMILES,EC50 [1],IC50 [2] [µM],Activity [3] [%],Activity [4] [%],IC50 [5] [µM],EC50 [6] [µM],Activity [7] [%],Activity [8] [%]
CC1(C)C(=O)CC[C@]2(C)[C@@]3(C)c4[nH]c5ccccc5c4C[C@@H]3CC[C@@]12O [LECANINDOLE B],Not Active,> 10000,47,8,> 10,> 10,32,12
CC1(C)[C@H](O)CC[C@]2(C)[C@@]3(C)c4[nH]c5ccccc5c4C[C@@H]3CC[C@@]12O [LECANINDOLE D],Not Active,> 3000,82,35,> 10,> 10,41,64
